Results: paper PMC6767236, “Selective Cannabinoid 2 Receptor Agonists as Potential Therapeutic Drugs for the Treatment of Endotoxin-Induced Uveitis” (Molecules, 2019)
Entries after “also recorded” stand apart in the source; their conditions may differ. Like-named read-outs stand apart in the source and are kept apart here. Marks after values point to notes of the source that are not given here.

What was measured:
[1] = cited from earlier work; for Hepatocyte Clearance mouse: mouse hepatocytes, * previously published; for clearance in mouse hepatocytes (class in words): underlying data previously published
human CB2R = target: T1, human CB2R (Homo sapiens, UniProt P34972); conditions: cited from earlier work; for EC50: read-out: hCB2R: beta arrestin EC50
T1 construct: bgal (beta-galactosidase fragment of the PathHunter system, named only in the cell line's name); host or cells: CHO-K1 (CHOK1hCB2_bgal)
T1 sequence (P34972 whole entry, the tested form may be a part): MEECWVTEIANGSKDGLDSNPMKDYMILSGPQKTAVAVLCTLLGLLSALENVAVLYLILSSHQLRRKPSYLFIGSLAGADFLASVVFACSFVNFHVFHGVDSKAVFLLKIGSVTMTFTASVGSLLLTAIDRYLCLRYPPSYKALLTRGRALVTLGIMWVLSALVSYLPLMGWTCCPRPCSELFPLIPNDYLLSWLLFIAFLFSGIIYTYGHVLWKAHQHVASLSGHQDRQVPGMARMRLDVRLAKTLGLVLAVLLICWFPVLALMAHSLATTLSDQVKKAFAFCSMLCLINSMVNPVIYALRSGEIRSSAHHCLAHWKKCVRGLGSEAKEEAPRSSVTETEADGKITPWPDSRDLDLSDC

human CB1R [2] = target: T2, human CB1R (Homo sapiens, UniProt P21554)
T2 construct: host or cells: CHO
T2 sequence (P21554 whole entry): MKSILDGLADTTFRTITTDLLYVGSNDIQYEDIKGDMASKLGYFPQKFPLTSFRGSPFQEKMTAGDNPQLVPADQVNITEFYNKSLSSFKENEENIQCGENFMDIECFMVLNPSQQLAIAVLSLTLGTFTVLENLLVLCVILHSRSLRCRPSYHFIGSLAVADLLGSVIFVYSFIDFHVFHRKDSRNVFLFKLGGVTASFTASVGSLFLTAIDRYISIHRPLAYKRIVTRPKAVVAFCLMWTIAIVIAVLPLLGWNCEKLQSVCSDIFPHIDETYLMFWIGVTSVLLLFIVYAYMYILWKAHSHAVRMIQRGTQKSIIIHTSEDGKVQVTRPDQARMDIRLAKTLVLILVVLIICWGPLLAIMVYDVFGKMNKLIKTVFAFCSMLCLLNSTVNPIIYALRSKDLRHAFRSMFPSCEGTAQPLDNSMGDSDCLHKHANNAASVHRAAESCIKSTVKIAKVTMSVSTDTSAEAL

[3] = human hepatocytes; * previously published; cited from earlier work
human CB1R [4] = target: T2, human CB1R; remark: listed apart in the source
human CB1R [5] = target: T2, human CB1R; remark: listed apart in the source
CYP2D6 = CYP2D6 (Homo sapiens, UniProt P10635); test: Cytochrome P450 inhibition assay, CYP2D6; assay type: in vitro ADME
CYP2D6, sequence (P10635 whole entry): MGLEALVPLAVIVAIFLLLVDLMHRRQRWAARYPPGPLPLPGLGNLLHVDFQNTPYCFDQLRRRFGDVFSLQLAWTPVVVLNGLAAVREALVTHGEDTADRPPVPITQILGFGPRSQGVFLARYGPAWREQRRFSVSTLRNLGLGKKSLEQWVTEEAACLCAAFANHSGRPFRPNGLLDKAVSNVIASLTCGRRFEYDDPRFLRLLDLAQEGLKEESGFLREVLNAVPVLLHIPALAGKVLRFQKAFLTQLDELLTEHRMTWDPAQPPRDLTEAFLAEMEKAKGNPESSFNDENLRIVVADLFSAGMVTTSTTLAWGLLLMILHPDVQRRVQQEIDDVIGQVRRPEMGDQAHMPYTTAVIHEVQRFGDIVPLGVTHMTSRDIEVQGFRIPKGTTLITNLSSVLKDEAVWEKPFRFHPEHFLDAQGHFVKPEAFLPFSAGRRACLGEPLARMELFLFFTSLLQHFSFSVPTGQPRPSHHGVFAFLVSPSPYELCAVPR

[6] = Experimental: The GSH adduct formation test aims for the identification of molecules which bear the risk of forming reactive metabolites that might trigger drug-induced liver injury and drug-induced hypersensitivity reactions in patients. The compounds are incubated with liver microsomes to assess reactive metabolite formation. Glutathione is added as a nucleophile to convert eventually formed reactive species into a stable conjugate that can be analyzed by mass spectrometry. Details on the assay have been reported in Brink et al. (2014). […]
[7] = phosphate buffer pH 6.5; * previously published; cited from earlier work
[8] = Chemical stability (aqueous stability assay ASTA); assay type: physicochemical; conditions: aqueous buffer, 37 °C
Experimental: Chemical Stability (= Aqueous Stability Assay ASTA)
ASTA is a fully automated assay to determine the 2 h stability of a molecule in aqueous conditions, over the pH range 1–10. Five different pH values are used and the solutions are heated at 37 °C. A compound is classified unstable if, after 2 h, less than 90% of the initial concentration can be found. Samples are first prepared on incubation plates and shaken initially for 10 min at 37 °C.
Solutions are then transferred to a filter plate (Millipore MSGVN2250, pore size 0.22 µm) and filtrated into V-bottom plates (from ABGene, AB-0800) that are heat-sealed prior to HPLC analysis. The procedure is performed a second time. However, the incubation time at 37 °C for the second plate is increased by 2 h. Samples are taken at time point 0 and 2 h and analyzed by HPLC. […]

[9] = system: leukocyte-endothelial interactions in the iridial microcirculation; test: Endotoxin-induced uveitis (EIU), intravital microscopy of iridial microcirculation, WT mice; assay type: in vivo, BALB/c mice; conditions: for adherent leukocytes in the iridial microcirculation: WT mice; for Rolling leukocytes per min: LPS + topical 1.5% w/v, mean ± SD, n = 6
Experimental: EIU was induced in BALB/c mice using an intravitreal injection of LPS (2 μL; 125 ng/μL; E. coli 0111:B4 L084M4118V; Sigma-Aldrich, Oakville, ON, Canada) in saline,. Animals were anesthetized with isoflurane (4% induction, 2% maintenance), and were injected intravitreally through the pars plana with sterile saline (control) or LPS solution using a 30G needle and Hamilton syringe (Hamilton Company, Reno, NV, USA) with the assistance of a WILD M37 dissecting microscope (Leitz Canada, Kitchener, ON, Canada). The puncture wound was glued shut with 3M Vetbond Tissue Adhesive (3M Animal Products, St. Paul, MN, USA), and animals were allowed to recover.
IVM was conducted as previously described in Toguri et al. (2014). The iridial microcirculation was imaged 6 h after induction of EIU. Animals were anesthetized with pentobarbital (i.p., 54 mg/kg). Fifteen minutes before initiating IVM, 0.05% Rhodamine 6G (1.5 mL/kg; Sigma-Aldrich) was injected intravenously (i.v.) to visualize leukocytes within the vasculature, while 5% fluorescein isothiocyanate (FITC) conjugated albumin (i.v., 1 mL/kg; Sigma-Aldrich) was used to visualize blood flow. The iridial microcirculation was observed using an Olympus OV100 Small Animal Imaging System (Olympus, Tokyo, Japan), which contains an MT-20 light source, fluorescence excitation from a xenon lamp (150 W) and an excitation filter for rhodamine-6G (excitation 515–560 nm, emission 590 nm). Images were captured in real-time by a black and white DP70 CCD C-mount camera and digitally recorded using HCImage software (Hamamatsu, Herrsching, Germany).
During IVM animals were placed on a heating pad in a stereotactic frame, and Tear-Gel® (Novartis Pharmaceuticals Canada Inc., Dorval, QC, Canada) was applied to their cornea. The iris was divided into four equal quadrants by drawing two superficial lines on the cornea, lengthwise and widthwise. IVM was carried out in each of these quadrants. Two to four videos of each quadrant were recorded for 30 s each. Videos were analyzed off-line without knowledge of the treatment groups. […] Using ImageJ software (National Institute of Health, Bethesda, MD, USA) the number of adherent leukocytes within each vessel segment was calculated by measuring the diameter and length of vessel segment studied, assuming a cylindrical geometry of blood vessels. Adherent leukocytes were expressed as number of cells per mm^2 of endothelial surface. Rolling leukocytes were classified as cells that moved along the endothelium and crossed a predetermined cross-sectional line of the venule. The number of rolling leukocytes was counted for 30 s and used to calculate the number of rolling leukocytes per min. IVM was conducted 6 h after induction of EIU.
RO6871304, RO6871085, or RO6851228 were applied topically on the left eye (1.5% w/v; 5 μL/animal)) directly after injection of LPS in the same eye. Control animals received vehicle (Tocrisolve) (5 μL/animal) only. HU910 was dissolved for i.v. administration in mixed micelles.

[10] = * previously published; cited from earlier work
mouse P-gp = conditions: cited from earlier work; for P-glycoprotein-Mediated Efflux Extraction Ratio mouse: mouse P-gp, * previously published; for P-gp substrate, mouse: underlying data previously published
[11] = human and mouse liver microsomes; underlying data previously published; cited from earlier work
[12] = * previously published; cited from earlier work; remark: listed apart in the source
[13] = underlying data previously published
[14] = * previously published; read-out: hCB1R: beta arrestin EC50; cited from earlier work
[15] = [3H]-CP55940 displacement; * previously published; read-out: hCB1R: Ki; cited from earlier work
[16] = * previously published; read-out: hCB1R: cAMP EC50; cited from earlier work
[17] = pH 1, 2 h, read-out: Chemical Stability in Aqueous Buffer at pH 1 (% remaining after 2 h at 37 °C)
[18] = pH 4, 2 h, read-out: Chemical Stability in Aqueous Buffer at pH 4 (% remaining after 2 h at 37 °C)
[19] = pH 6.5, 2 h, read-out: Chemical Stability in Aqueous Buffer at pH 6.5 (% remaining after 2 h at 37 °C)
[20] = pH 8, 2 h, read-out: Chemical Stability in Aqueous Buffer at pH 8 (% remaining after 2 h at 37 °C)
[21] = pH 10, 2 h, read-out: Chemical Stability in Aqueous Buffer at pH 10 (% remaining after 2 h at 37 °C)
[22] = topical 1.5% w/v (5 µL/animal), 6 h after intravitreal LPS, vs LPS + vehicle

| Compound | Hepatocyte Clearance mouse [1] [μL/min/Mio cells] | hCB2R: beta arrestin efficacy (human CB2R; * previously published) [%] | functional behaviour in hCB2R β-arrestin assay (human CB2R; [13]) | Hepatocyte Clearance human [3] [μL/min/Mio cells] | GSH Adduct Formation in Human Liver Microsomes [6] | Kinetic Solubility [7] [µg/mL] | EC50 (human CB1R [2]; [14]) [µM] | Ki (human CB1R [4]; [15]) [µM] | EC50 (human CB1R [5]; [16]) [µM] | remaining at 2 h [8, 17] [%] | remaining at 2 h [8, 18] [%] | remaining at 2 h [8, 19] [%] | remaining at 2 h [8, 20] [%] | remaining at 2 h [8, 21] [%] | adherent leukocytes in the iridial microcirculation [9, 22] | IC50 (CYP2D6; read-out: IC50 CYP2D6) [µM] | Plasma Protein Binding: FREE Fraction human [10] [%] | P-glycoprotein-Mediated Efflux Extraction Ratio mouse (mouse P-gp) | clearance in human as well as mouse microsomes (class in words) [11] | LogD (at pH 7.4) [12] | other results |
| --- | --- | --- | --- | --- | --- | --- | --- | --- | --- | --- | --- | --- | --- | --- | --- | --- | --- | --- | --- | --- | --- |
| CCCCCCC(C)(C)c1cc(OC)c([C@H]2C=C(CO)[C@H]3C[C@@H]2C3(C)C)c(OC)c1 [HU308, {(1S,4S,5S)-4-[2,6-Dimethoxy-4-(2-methyloctan-2-yl)phenyl]-6,6-dimethylbicyclo[3.1.1]hept-2-en-2-yl}methanol, reference compound] | 4.7 | 107 | full agonist | 8.3 | no adduct | < 0.75 |  |  |  |  |  |  |  |  |  |  |  |  |  |  | EC50 (human CB1R [2]; read-out: hCB1R: beta arrestin EC50; * previously published; cited from earlier work): > 10 µM; Ki (human CB1R [4]; read-out: hCB1R: Ki; [3H]-CP55940 displacement; * previously published; cited from earlier work): 4.6 µM; EC50 (human CB1R [5]; read-out: hCB1R: cAMP EC50; * previously published; cited from earlier work): > 10 µM; IC50 (CYP2D6): > 50 µM |
| CCCCCCC(C)(C)c1cc(OC)c(C2=C[C@H]3CC[C@]2(CO)C3(C)C)c(OC)c1 [HU910, {(1S,4R)-2-[2,6-dimethoxy-4-(2-methyloctan-2-yl)phenyl]-7,7-dimethylbicyclo[2.2.1]hept-2-en-1-yl}methanol, reference compound] | 34 |  |  | 9.2 | no adduct | < 0.5 | > 30 | 3.73 | > 10 | 94 | 93 | 91 | 94 | 93 | significantly attenuated | > 50 | 1.8 | 3.0 |  |  | functional behaviour in hCB2R β-arrestin assay (human CB2R): full agonist; hCB2R: beta arrestin efficacy (human CB2R): 109, 81 * %; EC50 (human CB2R): 0.109 µM; adherent leukocytes in the iridial microcirculation ([9]; 3.0 mg/kg i.v. in mixed micelles, 6 h after LPS, vs LPS + vehicle (p < 0.01)): significantly reduced leukocyte adhesion |
| CNC(=O)[C@@H](NC(=O)c1cc(OCC2(C)COC2)c(C2CC2)cn1)C(C)(C)C [RO6851228, 5-Cyclopropyl-N-[(2S)-3,3-dimethyl-1-(methylamino)-1-oxobutan-2-yl]-4-[(3-methyloxetan-3-yl)methoxy]pyridine-2-carboxamide] | 46 |  |  | 12 | no adduct |  |  | 6.49 |  | 93 | 100 | 99 | 100 | 100 | increased leukocyte-adhesion; also recorded: increases leukocyte adhesion | > 50 | 9.6 | 25.1 | low to medium clearances | 3.21 | Rolling leukocytes per min ([9]; 6 h after intravitreal LPS): 0.45 ± 0.47 per min; P-gp substrate, mouse (mouse P-gp): strong P-gp substrate |
| Cc1nc([C@](C)(CC2CC2)NC(=O)c2cc(OCC(F)(F)F)c(C3CC3)cn2)no1 [RO6871085, 5-Cyclopropyl-N-[(2S)-1-cyclopropyl-2-(5-methyl-1,2,4-oxadiazol-3-yl)propan-2-yl]-4-(2,2,2-trifluoroethoxy)pyridine-2-carboxamide] | 27 |  |  | 17 | no adduct |  | > 30 | 3.38 | 1.45 | 99 | 99 | 97 | 99 | 99 | significantly attenuated | 34 | 1.0 | 1.7 | low to medium clearances | 3.94 | clearance in mouse hepatocytes (class in words) [1]: medium; hCB1R: cAMP efficacy (human CB1R [5]; second number of the cell; relative to 1 µM CP55940; * previously published; cited from earlier work): 38%; P-gp substrate, mouse (mouse P-gp): not a P-gp substrate |
| CC(C)(C)c1nc(N2CC[C@H](O)C2)c2nnn(Cc3nnnn3C3CC3)c2n1 [RO6871304, (3S)-1-{5-tert-butyl-3-[(1-cyclopropyl-1H-tetrazol-5-yl)methyl]-3H-[1,2, 3]triazolo[4,5-d]pyrimidin-7-yl}pyrrolidin-3-ol] | 140 | 119 | full agonist | 15 | no adduct | 162 ± 2 |  | > 10 | > 10 | 100 | 100 | 100 | 99 | 100 | significantly attenuated; also recorded: most efficacious | > 50 |  |  | low to medium clearances | 2.78 | clearance in mouse hepatocytes (class in words) [1]: high; EC50 (human CB2R; * previously published): 0.021 µM; Rolling leukocytes per min ([9]; 6 h after intravitreal LPS): 0.05 ± 0.07 per min |
